Data reported in US11147272B2, “Pyridone compounds and agricultural and horticultural fungicides comprising the same as active ingredients” (MITSUI CHEMICALS AGRO, INC., priority 2017, dated 2021).

Experiments:
[1] = test system: Magnaporthe grisea; assay: whole plant or invertebrate; format: in vivo; settings: 250 ppm drug solution sprayed on test plant
[2] = test system: Alternaia brassicicola; assay: Test Example C: Alternaria sooty spot on cabbage; format: in vivo; settings: 250 ppm drug solution sprayed on test plant
From the text: Seeds of a test plant (cabbage variety: Shikidori) were planted and cultivated until the cotyledons extended.
<Control Value> Control value=100{1−(n/3)}

[3] = test system: Colletotrichum orbiculare; assay: Test Example H: Anthracnose on cucumber; settings: 250 ppm drug solution sprayed (2.5 ml/pot), cucumber Sagami Hanjiro, 6 to 10 days after inoculation
[4] = test system: Blumeria graminis f. sp. hordei; assay: Test Example D: Powdery mildew on barley; settings: 250 ppm drug solution sprayed on test plant
[5] = test system: Phytophthora infestans; assay: whole plant or invertebrate; format: in vivo; settings: 250 ppm drug solution sprayed on test plant
[6] = test system: Botrytis cinerea; assay: Test Example B: Gray mold on tomato; settings: 250 ppm drug solution sprayed on test plant
[7] = test system: Puccinia recondita; assay: Test Example E: Brown rust on wheat; format: in vivo; settings: 250 ppm drug solution sprayed on test plant
[8] = test system: Plasmopara viticola; assay: Test Example G: Downy mildew on vine; settings: 250 ppm drug solution sprayed (2.5 ml/pot), grape Neomuscat, 7 to 10 days after inoculation

CCC(OC)c1cc(Cl)c(=O)n(C)c1-c1c(F)cc(F)cc1F (stereo not shown) [compound 502]
Test A control value [1]: H (more than 50% control value) | Test C control value [2]: H (more than 50% control value) | Test H control value [3]: H (more than 50% control value) | Test D control value [4]: H (more than 50% control value) | Test F control value [5]: L (50% or less control value) | Test B control value [6]: H (more than 50% control value) | Test E control value [7]: H (more than 50% control value) | Test G control value [8]: H (more than 50% control value)

CCn1c(-c2c(F)cc(OC)cc2F)c(C(OC)C(C)C)cc(Br)c1=O (stereo not shown) [compound 503]
Test A control value [1]: H (more than 50% control value) | Test C control value [2]: H (more than 50% control value) | Test H control value [3]: H (more than 50% control value) | Test D control value [4]: H (more than 50% control value) | Test F control value [5]: L (50% or less control value) | Test B control value [6]: H (more than 50% control value) | Test E control value [7]: H (more than 50% control value) | Test G control value [8]: H (more than 50% control value)

CCC(OC)c1cc(Br)c(=O)n(CC)c1-c1c(F)cc(F)cc1F (stereo not shown) [compound 504]
Test A control value [1]: H (more than 50% control value) | Test C control value [2]: H (more than 50% control value) | Test H control value [3]: H (more than 50% control value) | Test D control value [4]: H (more than 50% control value) | Test F control value [5]: L (50% or less control value) | Test B control value [6]: H (more than 50% control value) | Test E control value [7]: H (more than 50% control value) | Test G control value [8]: H (more than 50% control value)

CCC(C)(O)c1cc(Cl)c(=O)n(C)c1-c1c(F)cc(F)cc1F (stereo not shown) [compound 505]
Test A control value [1]: H (more than 50% control value) | Test C control value [2]: H (more than 50% control value) | Test H control value [3]: H (more than 50% control value) | Test D control value [4]: H (more than 50% control value) | Test F control value [5]: L (50% or less control value) | Test B control value [6]: H (more than 50% control value) | Test E control value [7]: H (more than 50% control value) | Test G control value [8]: H (more than 50% control value)

CCC(OC)c1cc(Cl)c(=O)n(C)c1-c1c(F)cc(OC)cc1F (stereo not shown) [compound 506]
Test A control value [1]: H (more than 50% control value) | Test C control value [2]: H (more than 50% control value) | Test H control value [3]: H (more than 50% control value) | Test D control value [4]: H (more than 50% control value) | Test F control value [5]: L (50% or less control value) | Test B control value [6]: H (more than 50% control value) | Test E control value [7]: H (more than 50% control value) | Test G control value [8]: H (more than 50% control value)

CCC(OC)c1cc(Br)c(=O)n(CC)c1-c1c(F)cc(OC)cc1F (stereo not shown) [compound 507]
Test A control value [1]: H (more than 50% control value) | Test C control value [2]: H (more than 50% control value) | Test H control value [3]: H (more than 50% control value) | Test D control value [4]: H (more than 50% control value) | Test F control value [5]: L (50% or less control value) | Test B control value [6]: H (more than 50% control value) | Test E control value [7]: H (more than 50% control value) | Test G control value [8]: H (more than 50% control value)

CCC(C)(OC)c1cc(Cl)c(=O)n(C)c1-c1c(F)cc(F)cc1F (stereo not shown) [compound 508]
Test A control value [1]: H (more than 50% control value) | Test C control value [2]: H (more than 50% control value) | Test H control value [3]: H (more than 50% control value) | Test D control value [4]: H (more than 50% control value) | Test F control value [5]: L (50% or less control value) | Test B control value [6]: H (more than 50% control value) | Test E control value [7]: H (more than 50% control value) | Test G control value [8]: H (more than 50% control value)

CCOC(C)(CC)c1cc(Cl)c(=O)n(C)c1-c1c(F)cc(F)cc1F (stereo not shown) [compound 509]
Test A control value [1]: H (more than 50% control value) | Test C control value [2]: L (50% or less control value) | Test H control value [3]: H (more than 50% control value) | Test D control value [4]: H (more than 50% control value) | Test F control value [5]: L (50% or less control value) | Test B control value [6]: L (50% or less control value) | Test E control value [7]: H (more than 50% control value) | Test G control value [8]: H (more than 50% control value)

CCn1c(-c2c(F)cccc2F)c(C=O)ccc1=O [compound 510]
Test A control value [1]: H (more than 50% control value) | Test C control value [2]: L (50% or less control value) | Test H control value [3]: L (50% or less control value) | Test D control value [4]: L (50% or less control value) | Test F control value [5]: L (50% or less control value) | Test B control value [6]: L (50% or less control value) | Test E control value [7]: L (50% or less control value) | Test G control value [8]: L (50% or less control value)

CCC(C)(OC)c1cc(Cl)c(=O)n(C)c1-c1c(F)cc(OC)cc1F (stereo not shown) [compound 511]
Test A control value [1]: H (more than 50% control value) | Test C control value [2]: H (more than 50% control value) | Test H control value [3]: H (more than 50% control value) | Test D control value [4]: L (50% or less control value) | Test F control value [5]: L (50% or less control value) | Test B control value [6]: H (more than 50% control value) | Test E control value [7]: H (more than 50% control value) | Test G control value [8]: H (more than 50% control value)

CCC(C)(O)c1cc(Cl)c(=O)n(C)c1-c1c(F)cc(OC)cc1F (stereo not shown) [compound 513]
Test A control value [1]: H (more than 50% control value) | Test C control value [2]: H (more than 50% control value) | Test H control value [3]: H (more than 50% control value) | Test D control value [4]: H (more than 50% control value) | Test F control value [5]: L (50% or less control value) | Test B control value [6]: H (more than 50% control value) | Test E control value [7]: H (more than 50% control value) | Test G control value [8]: H (more than 50% control value)

CCn1c(-c2c(F)cc(F)cc2F)c(C(C)O)cc(Cl)c1=O (stereo not shown) [compound 514]
Test A control value [1]: L (50% or less control value) | Test C control value [2]: H (more than 50% control value) | Test H control value [3]: H (more than 50% control value) | Test D control value [4]: H (more than 50% control value) | Test F control value [5]: L (50% or less control value) | Test B control value [6]: H (more than 50% control value) | Test E control value [7]: H (more than 50% control value) | Test G control value [8]: H (more than 50% control value)

CCn1c(-c2c(F)cccc2F)c(C(O)C(C)C)cc(Br)c1=O (stereo not shown) [compound 520]
Test A control value [1]: H (more than 50% control value) | Test C control value [2]: H (more than 50% control value) | Test H control value [3]: H (more than 50% control value) | Test D control value [4]: H (more than 50% control value) | Test F control value [5]: L (50% or less control value) | Test B control value [6]: H (more than 50% control value) | Test E control value [7]: H (more than 50% control value) | Test G control value [8]: H (more than 50% control value)

CCn1c(-c2c(F)cccc2F)c(C(C)(O)C(C)C)ccc1=O (stereo not shown) [compound 521]
Test A control value [1]: L (50% or less control value) | Test C control value [2]: H (more than 50% control value) | Test H control value [3]: L (50% or less control value) | Test D control value [4]: H (more than 50% control value) | Test F control value [5]: L (50% or less control value) | Test B control value [6]: H (more than 50% control value) | Test E control value [7]: H (more than 50% control value) | Test G control value [8]: H (more than 50% control value)
